Results reported in patent publication US20260297129A1, “PEPTIDES AS SELECTIVE IL-23 RECEPTOR INHIBITORS” (SANOFI, priority 2023, published 2026).
≈ marks a conversion by molar mass, not a printed value. Like-named read-outs stand apart in the source and are kept apart here. Numbered stars: 1 amine (or outer) side, 2 acyl side, 3 side chain; on linkers, the order of the positions; unused ones are H or OH. Bridge positions count the residues as written; N and C are the ends. Square brackets hold non-standard residues; d marks the D form. Peptide text beside a SMILES is read from it. * marks the point of attachment. Lys(Me,(CH2)4NMe(CH2)5CO) = CN(CCCCCC(=O)[*:3])CCCCN(C)CCCC[C@H](N[*:1])C(=O)[*:2]; Lys(Me,(CH2)4NMe(CH2)4CO) = CN(CCCCC(=O)[*:3])CCCCN(C)CCCC[C@H](N[*:1])C(=O)[*:2]; Trp(7-Me) = Cc1cccc2c(C[C@H](N)C(=O)O)c[nH]c12; Trp(1-Me) = Cn1cc(C[C@H](N)C(=O)O)c2ccccc21; NH(2-(3-pyridyl)ethyl) = c1cncc(CCN*)c1; αMeLys(Me2) = CN(C)CCCC[C@](C)(N)C(=O)O; 2Nal = N[C@@H](Cc1ccc2ccccc2c1)C(=O)O; 3Pal = N[C@@H](Cc1cccnc1)C(=O)O; Thp = NC1(C(=O)O)CCOCC1; Me2NCH2CH2 = CN(C)CC*; Aib = CC(C)(N)C(=O)O; Sar = CNCC(=O)O

Key:
[1] = test system: IL-23 induced STAT3 signaling (IL-23 receptor) in HEK-Blue IL-23 cells; test: Inhibition of IL-23 induced STAT3 signaling in HEK-Blue IL-23 cells, SEAP reporter (Table 9); type: cell-based; conditions: human IL23 0.25 ng/ml, overnight, read-out: Inhibition of IL-23 induced pSTAT3 (IC50 nM)
Source text: HEK-Blue™ IL-23 cells (INVIVOGEN) are designed for the detection of bioactive human (hIL-23) and murine IL-23 (mIL-23) by monitoring the activation of the STAT3 pathway. Binding of IL-23 to its receptor on the surface of HEK-Blue™ IL-23 cells triggers a signaling cascade leading to the activation of STAT3 and the subsequent production of secreted embryonic alkaline phosphatase (SEAP). This can be readily assessed using QUANTI-Blue™ Solution, a SEAP detection reagent.
HEK-Blue™ IL-23 cells were cultured as described by INVIVOGEN.
On the first day of assay 10 μL of the HEK-BLUE IL23 cell suspension (final concentration: 10,000 cells/well) and 10 μl of serially diluted peptides solutions were dispensed into a 384-well assay plate. After pre-incubation of the reaction mixtures at 37° C./5% CO2/95% humidity for 60 minutes, 10 μl of the humanIL23 cytokine (final concentration: 0.25 ng/ml) was added to each well for the STAT3 signaling activation. The plate was incubated overnight at 37° C./5% CO2/95% humidity.
On the second day 20 μl per well of QUANTI-BLUE detection solution (prepared according to the manufacture instruction) was dispensed into a new 384-well plate and followed by the transfer of 5 μl supernatant of the overnight incubated cell/sample mixtures. After incubation of 45 min at room temperature signals were measured with PHERASTAR (BMG) at OD 620-655 nm.
Dose response data were fitted with XLfit.

[2] = Protease stability in simulated gastric fluids (FaSSGF) (Table 7); type: in vitro ADME; conditions: fassgf with pepsin, 60 min, 37° C., read-out: Remaining percentage of peptide compound, FaSSGF 60 (min)
Protocol: (§1) Studies were carried out in simulated intestinal fluid (SIF) and simulated gastric fluid (SGF) to evaluate gastric stability of the peptide compounds disclosed herein.
For clarification, the term “Pepsin-SGF” refers to a solution of simulated gastric fluid containing pepsin whereas “SGF media” refers to a solution of simulated gastric fluid without pepsin. Pepsin-SGF was prepared by dissolving 320 mg Pepsin (Merck Millipore) in 100 mL SGF media concentrate (PROSENSE).
(§2) Peptide compounds were first dissolved at 1 mM stock concentration in 0.01 HCl (+/−10% of DMSO) and were than diluted further with water to a stock concentration of 20 μM. Final peptide concentration in the incubation was 1 μM.
(§3) To 76 μL of the Pepsin-SGF buffer, 4 μL of the 20 μM peptide stock solution was added and incubated at 37° C. At each timepoint (0, 60, 120 and 240 minutes) the reaction was quenched with addition of 80 μL Ethanol (0,1% HCOOH). The samples were centrifuged for 20 minutes and an aliquot of the supernatant 100 μL were transferred to a LoBind-MTP plate and analyzed by LCMS/MS. The peak area response was calculated at each time point for each test compound. As internal reference, the peak area response of the same test compound at T0 was calculated. The percentage remaining at each timepoint was calculated based on the peak area response ratio of the test compound at T0. Time 0 was set to 100%, and all later timepoints were calculated relative to time 0.
as §3, with “(0.1%” for “(0,1%”

[3] = Solubility of peptide compounds in buffer formulations (Table 5); type: physicochemical; conditions: target 1 mg/ml
Protocol: Prior to the solubility measurement of a peptide batch, its purity was determined through UHPLC/MS method A.
(§4) For solubility testing the target concentration was 1 mg pure compound/ml. Therefore, solutions from solid samples were prepared in a buffer system at a concentration of 1 mg/mL compound. The solid samples were obtained by drying down aliquots of a freshly prepared dimethyl sulfoxide stock solution using a THERMO SPEEDVAC vacuum centrifuge. The dry down time was 3 hours.
The following buffer systems were applied: • Solubility buffer system A) 50 mM HCl pH 1.2 • Solubility buffer system B) 50 mM phosphate buffer pH 6.5 • Solubility buffer system C) 50 mM phosphate buffer pH 7.4 • UHPLC-UV was performed using analytical method A after 2 hours of gentle agitation from the filtered (0.45 μm filter plates) solutions, which were obtained by 10 mins of centrifugation forced filtration at 1500 RCF (relative centrifugal acceleration).
The solubility was determined by the comparison of the UV peak area of 2 μL-injections of a buffered sample diluted 1:10 with a standard curve of a dimethyl sulfoxide reference sample of known concentration. The different extinction coefficients were taken into account for the calculation.

[4] = Protease stability in simulated intestinal fluids (FaSSIF) (Table 7); type: in vitro ADME; conditions: fassif with pancreatin, 37° C.
Protocol: as §1
Similarly, the term “Pancreatin-SIF” refers to a solution of simulated intestinal fluid containing pancreatin whereas “SIF-media” refers to a solution of simulated intestinal fluid without pancreatin. Pancreatin-SIF was prepared by dissolving 1 mg Pancreatin (MP Biomedicals) in 10 mL SIF media concentrate (PROSENSE).
as §2
as §3, with “(0.1%” for “(0,1%”

[5] = Chemical stability (relative purity loss) of peptide compounds in buffer formulations (Table 6); type: physicochemical; conditions: 2° C. and 37° C.
Protocol: Purity of a peptide batch was determined through UHPLC/MS method A prior to chemical stability measurement.
as §4, with “stability assessment,” for “solubility testing”, “0.5” for “1”, “acetonitrile” for “dimethyl sulfoxide”
The following buffer systems were applied: • Solubility buffer system A): 50 mM HCl pH 1.2+Acetonitrile (3:1). • Solubility buffer system B): 50 mM phosphate buffer pH 6.5+Acetonitrile (3:1). • Solubility buffer system C): 50 mM phosphate buffer pH 7.4+Acetonitrile (3:1). • Prepared solutions were stored for 24 hours at 2° C. and 37° C.
After this time course, the samples were centrifuged for 15 min at 2500 RCF to create a 1:5 dilution of the supernatant. Then 2 μl of the dilution were analyzed with UHPLC-UV applying method A.
The chemical stability was rated through the relative loss of purity calculated by the equation: […]

[6] = Buffer pH 1.1 (head; method: 50 mM HCl pH 1.2), 2 h agitation, read-out: Solubility, Buffer pH 1.1
[7] = aqueous buffer, 50 mM phosphate buffer pH 6.5, 2 h agitation, read-out: Solubility, Buffer pH 6.5
[8] = aqueous buffer, 50 mM phosphate buffer pH 7.4, 2 h agitation, read-out: Solubility, Buffer pH 7.4

Row | Compound | IC50 [1] | remaining at 1 h, 1 µM [2] | solubility at 2 h [3, 6] | solubility at 2 h [3, 7] | solubility at 2 h [3, 8] | remaining at 1 h, 1 µM ([4]; 60 min, read-out: Remaining percentage of peptide compound, FaSSIF 60 (min)) | remaining at 2 h, 1 µM ([4]; 120 min, read-out: Remaining percentage of peptide compound, FaSSIF 120 (min)) | remaining at 4 h, 1 µM ([4]; 240 min, read-out: Remaining percentage of peptide compound, FaSSIF 240 (min)) | degraded at 24 h ([5]; 50 mM phosphate buffer pH 6.5 + acetonitrile (3:1), read-out: Chemical stability (relative purity loss), Buffer pH 6.5) | degraded at 24 h ([5]; 50 mM phosphate buffer pH 7.4 + acetonitrile (3:1), read-out: Chemical stability (relative purity loss), Buffer pH 7.4) | degraded at 24 h ([5]; 50 mm hcl + acetonitrile, Buffer pH 1.1 (head; method: 50 mM HCl pH 1.2 + acetonitrile 3:1), read-out: Chemical stability (relative purity loss), Buffer pH 1.1)
1 | CN(C)CCOc1ccc(C[C@@H]2NC(=O)C3(CCOCC3)NC(=O)[C@H](CCC(N)=O)NC(=O)[C@H](Cc3cn(C)c4ccccc34)NC(=O)CCCCN(C)CCCCN(C)CCCC[C@@H](C(=O)NCC(=O)NCCc3cccnc3)NC(=O)C(C)(C)NC(=O)[C@H](Cc3ccc4ccccc4c3)NC2=O)cc1 [compound 25] ([Trp(1-Me)]Q[Thp]Y(Me2NCH2CH2)[2Nal][Aib][Lys(Me,(CH2)4NMe(CH2)4CO)]G-{NH(2-(3-pyridyl)ethyl)}; lactam N-7) | 42.5 nM | 98% | ≥ 950 µg/mL | ≥ 890 µg/mL | ≥ 860 µg/mL | 97% | 95% | 96% | – | – | –
2 | CN(C)CCOc1ccc(C[C@@H]2NC(=O)C3(CCOCC3)NC(=O)[C@H](CCC(N)=O)NC(=O)[C@H](Cc3cn(C)c4ccccc34)NC(=O)CCCCCN(C)CCCCN(C)CCCC[C@@H](C(=O)NCC(=O)NCCc3cccnc3)NC(=O)C(C)(C)NC(=O)[C@H](Cc3ccc4ccccc4c3)NC2=O)cc1 [compound 22] ([Trp(1-Me)]Q[Thp]Y(Me2NCH2CH2)[2Nal][Aib][Lys(Me,(CH2)4NMe(CH2)5CO)]G-{NH(2-(3-pyridyl)ethyl)}; lactam N-7) | 24.8 nM | – | ≥ 1020 µg/mL | ≥ 920 µg/mL | 330 µg/mL (≈ 224 µM) | – | – | – | – | – | –
3 | CC(=O)NCCCC[C@@H]1NC(=O)[C@H](Cc2c[nH]c3c(C)cccc23)NC(=O)CCCCN(C)CCCCN(C)CCCC[C@@H](C(=O)N[C@@H](CO)C(=O)N[C@@H](Cc2cccnc2)C(=O)N(C)CC(N)=O)NC(=O)[C@](C)(CCCCN(C)C)NC(=O)[C@H](Cc2ccc3ccccc3c2)NC(=O)[C@H](Cc2ccc(OCCN(C)C)cc2)NC(=O)C2(CCOCC2)NC1=O [compound 44] ([Trp(7-Me)]K(Ac)[Thp]Y(Me2NCH2CH2)[2Nal][αMeLys(Me2)][Lys(Me,(CH2)4NMe(CH2)4CO)]S[3Pal][Sar]-NH2; lactam N-7) | 1.19 nM | – | ≥ 1360 µg/mL | ≥ 1130 µg/mL | ≥ 1120 µg/mL | – | – | – | – | – | –
4 | CC(=O)NCCCC[C@@H]1NC(=O)[C@H](Cc2c[nH]c3c(C)cccc23)NC(=O)CCCCN(C)CCCCN(C)CCCC[C@@H](C(=O)NCC(=O)NCCc2cccnc2)NC(=O)C2(CCOCC2)NC(=O)[C@H](Cc2ccc3ccccc3c2)NC(=O)[C@H](Cc2ccc(OCCN(C)C)cc2)NC(=O)C2(CCOCC2)NC1=O [compound 48] ([Trp(7-Me)]K(Ac)[Thp]Y(Me2NCH2CH2)[2Nal][Thp][Lys(Me,(CH2)4NMe(CH2)4CO)]G-{NH(2-(3-pyridyl)ethyl)}; lactam N-7) | 10.4 nM | – | ≥ 980 µg/mL | 850 µg/mL (≈ 550 µM) | 810 µg/mL (≈ 524 µM) | – | – | – | – | – | –
5 | CN(C)CCCC[C@]1(C)NC(=O)[C@H](Cc2ccc3ccccc3c2)NC(=O)[C@H](Cc2ccc(OCCN(C)C)cc2)NC(=O)C2(CCOCC2)NC(=O)[C@H](CCC(N)=O)NC(=O)[C@H](Cc2cn(C)c3ccccc23)NC(=O)CCCCN(C)CCCCN(C)CCCC[C@@H](C(=O)N[C@@H](CO)C(=O)N[C@@H](Cc2cccnc2)C(=O)N(C)CC(N)=O)NC1=O [compound 45] ([Trp(1-Me)]Q[Thp]Y(Me2NCH2CH2)[2Nal][αMeLys(Me2)][Lys(Me,(CH2)4NMe(CH2)4CO)]S[3Pal][Sar]-NH2; lactam N-7) | 7.83 nM | – | ≥ 1060 µg/mL | ≥ 1030 µg/mL | ≥ 1030 µg/mL | – | – | – | – | – | –
6 | CC(=O)NCCCC[C@@H]1NC(=O)[C@H](Cc2c[nH]c3c(C)cccc23)NC(=O)CCCCN(C)CCCCN(C)CCCC[C@@H](C(=O)N[C@@H](CO)C(=O)N[C@@H](Cc2cccnc2)C(=O)N(C)CC(N)=O)NC(=O)C(C)(C)NC(=O)[C@H](Cc2ccc3ccccc3c2)NC(=O)[C@H](Cc2ccc(OCCN(C)C)cc2)NC(=O)C2(CCOCC2)NC1=O [compound 39] ([Trp(7-Me)]K(Ac)[Thp]Y(Me2NCH2CH2)[2Nal][Aib][Lys(Me,(CH2)4NMe(CH2)4CO)]S[3Pal][Sar]-NH2; lactam N-7) | 1.78 nM | – | ≥ 1000 µg/mL | ≥ 890 µg/mL | 850 µg/mL (≈ 516 µM) | – | – | – | 0% | 0% | 3.7%
7 | CC(=O)NCCCC[C@@H]1NC(=O)[C@H](Cc2cn(C)c3ccccc23)NC(=O)CCCCCN(C)CCCCN(C)CCCC[C@@H](C(=O)NCC(=O)NCCc2cccnc2)NC(=O)C(C)(C)NC(=O)[C@H](Cc2ccc3ccccc3c2)NC(=O)[C@H](Cc2ccc(OCCN(C)C)cc2)NC(=O)C2(CCOCC2)NC1=O [compound 23] ([Trp(1-Me)]K(Ac)[Thp]Y(Me2NCH2CH2)[2Nal][Aib][Lys(Me,(CH2)4NMe(CH2)5CO)]G-{NH(2-(3-pyridyl)ethyl)}; lactam N-7) | 39.2 nM | – | ≥ 970 µg/mL | ≥ 890 µg/mL | ≥ 880 µg/mL | – | – | – | – | – | –
